Reference: patent publication US7293985B2 (priority 1998, dated 2007)
Where a name gives a salt, the structure may show the parent alone. Read-outs that look alike come from different tables or passages of the source.

Tests used:
[1] = system: Vesicular stomatitis virus (VSV); assay type: cell-based
[2] = physchem; settings: buffer
[3] = physchem; settings: pH 7
[4] = system: murine red blood cells (RBCs); settings: mouse, in vivo
[5] = system: Yersinia enterocolitica; assay type: cell-based
[6] = system: red blood cell membranes; settings: 3 mM Glutathione added to PRBCs
Experimental: The concentration of GSH was calculated based on the absorbance at 412 nm using a Beckman DU20 (Beckman, Irvine, Calif.) single wavelength spectrometer.

[7] = system: cell-free HIV-IIIB; assay type: cell-based; settings: for Log Kill / Log Titer: no PIC-1, GSH 30 mM
[8] = system: Staphylococcus epidermidis; assay type: cell-based

O=S(=O)(O)CCS [MENSA, mercaptoethanesulfonic acid sodium salt]
Log Kill [1]: 2.3 log

O=C(CCNc1c2ccccc2nc2ccccc12)OCCN(CCCl)CCCl [PIC-1, β-alanine, N-(acridin-9-yl), 2-[bis(2-chloroethyl)amino]ethyl ester]
half-life ([2]; pH 2.2): 450 min | half-life ([2]; pH 6): 25 min | half-life [3]: 32 min

O=C(CCNc1c2ccccc2nc2ccccc12)NCCN(CCCl)CCCl [PIC-2, P-alanine, N-(acridin-9-yl), 2-[bis(2-chloroethyl)amino]ethyl amide]
RBC survival compared to control [4]: substantially the same as control | recovery or lifespan of treated RBCs compared to label-only controls [4]: No difference

N[C@@H](CS)C(=O)O [cysteine]
Log Kill [5]: 0 log | Log Titer [5]: 7.4 log

N[C@@H](CCC(=O)N[C@@H](CS)C(=O)NCC(=O)O)C(=O)O [glutathione]
Absorption 412 nm Supernatant ([6]; Time 0 min): 0.33 | Absorption 412 nm Total ([6]; Time 0 min): 0.230 | GSH Concentration Supernatant ([6]; Time 0 min): 3.071 mM | GSH Concentration Total ([6]; Time 0 min): 5.286 mM | Absorption 412 nm Supernatant ([6]; Time 60 min): 0.318 | Absorption 412 nm Total ([6]; Time 60 min): 0.227 | GSH Concentration Supernatant ([6]; Time 60 min): 2.96 mM | GSH Concentration Total ([6]; Time 60 min): 5.217 mM | Absorption 412 nm Supernatant ([6]; Time 120 min): 0.312 | Absorption 412 nm Total ([6]; Time 120 min): 0.231 | GSH Concentration Supernatant ([6]; Time 120 min): 2.90 mM | GSH Concentration Total ([6]; Time 120 min): 5.308 mM | Absorption 412 nm Supernatant ([6]; Time 270 min): 0.306 | Absorption 412 nm Total ([6]; Time 270 min): 0.213 | GSH Concentration Supernatant ([6]; Time 270 min): 2.85 mM | GSH Concentration Total ([6]; Time 270 min): 4.898 mM | Absorption 412 nm Supernatant ([6]; Time 1080 min): 0.297 | Absorption 412 nm Total ([6]; Time 1080 min): 0.227 | GSH Concentration Supernatant ([6]; Time 1080 min): 2.77 mM | GSH Concentration Total ([6]; Time 1080 min): 5.217 mM | Absorption 412 nm Supernatant ([6]; Time 1440 min): 0.296 | Absorption 412 nm Total ([6]; Time 1440 min): 0.220 | GSH Concentration Supernatant ([6]; Time 1440 min): 2.76 mM | GSH Concentration Total ([6]; Time 1440 min): 5.058 mM | reduction of HIV infectivity ([7]; 30 mM glutathione alone (samples 2 and 4 compared to samples 1 and 3)): 0.3 to 0.6 logs | Log Kill ([7]; 12 hour incubation (sample 4)): 0.6 log | Log Titer ([7]; 12 hour incubation (sample 4)): 6.4 log | Log Kill ([7]; no incubation (sample 2)): 0.3 log | Log Titer ([7]; no incubation (sample 2)): 6.9 log | Log Kill [5]: 0 log | Log Titer [5]: 7.4 log | reduction of inactivation [5]: 1 to 2 log kill | Log Kill [8]: 0 log | Log Titer [8]: 7.5 log | recovery or lifespan of treated RBCs compared to label-only controls [4]: No difference
